Assay results published in US20220267329A1, “Dihydro-Spiro[Indoline-3:1'-Isoquinolin]-2-Ones and Their Analogues and Derivatives and Methods of Treating Cancer and Other Diseases” (The University of Buea, priority 2019, published 2022).

Experiments:
[1] = target: sphingosine-1-phosphate receptor 1 (S1PR1) (Homo sapiens, UniProt P21453); test: Radioligand binding to sphingosine-1-phosphate receptor 1; details: test compound 100 nM, 0.2 nM radioligand; for inhibition at 0.1 µM: read-out: % INHIBITION of binding to the SIP1 Receptor
Sequence of sphingosine-1-phosphate receptor 1 (S1PR1) (P21453 whole entry, species assumed): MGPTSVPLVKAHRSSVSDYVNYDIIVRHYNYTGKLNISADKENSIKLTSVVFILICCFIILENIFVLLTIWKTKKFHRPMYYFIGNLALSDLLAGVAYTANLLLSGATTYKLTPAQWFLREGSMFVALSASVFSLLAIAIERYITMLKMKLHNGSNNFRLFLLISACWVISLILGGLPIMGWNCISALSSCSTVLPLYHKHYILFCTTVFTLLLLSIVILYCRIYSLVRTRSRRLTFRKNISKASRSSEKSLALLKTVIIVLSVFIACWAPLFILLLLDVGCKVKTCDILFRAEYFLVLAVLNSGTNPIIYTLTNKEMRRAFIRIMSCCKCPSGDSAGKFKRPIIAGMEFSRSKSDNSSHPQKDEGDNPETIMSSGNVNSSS
Protocol: The binding of a representative group of compounds of this invention to sphingosine-1-phosphate receptor 1 (S1PR1) was determined by a published procedure (Rosenberg et al., 2016). In this assay, the test compound at 100 nM concentration was incubated with 0.2 nM radioligand. Active compounds or “hits” are defined as compounds that inhibit radioligand binding by 50% or more. […] This finding is significant because it establishes the 3′,4′-dihydro-2′H-[…]-2-one hybrid scaffold as an entirely new class of ligands for the sphingosine-1-phosphate receptors.

[2] = tested on: EMT6 breast cancer cell line; test: Antiproliferative screening on EMT6 cancer cells; format: cell-based; details: for inhibition of EMT6 cell proliferation / EMT6 cell proliferation (%): 100 μM; for activity at 100 µM: Mus musculus, EMT6, no ligand = 100, read-out: EMT6 cell proliferation (%); for EMT6 cell proliferation (%): no ligand = 100
Protocol: Representative compounds were screened tested for antiproliferative activity on the EMT6 breast cancer cell line. Screening was carried out according to published procedures (Zeng et al., 2014). In this screen, compounds were tested at 100 μM concentration.

[3] = tested on: nonsmall cell lung cancer (NSCLC) cell lines; test: NCI-60 screen, NSCLC cell lines; format: cell-based, human; details: Homo sapiens, NCI-60 preliminary screening, read-out: Percent (%) Inhibition of Cancer Cell Line, NSCLC
Protocol: (§1) Screening for Anticancer Activity—The NCI-60 panel: Representative compounds of the invention were subjected to anticancer testing in the National Cancer Institute (NCI) 60 screen. In this screen compounds are tested on a panel of sixty human cancer cell lines chosen from the following cancers: leukemia, nonsmall cell lung cancer (NSCLC), colon, melanoma, central nervous system (CNS), ovarian, renal, prostate and breast. The assay method is found on the NCI website (dtp.cancer.gov/discovery_development/nci-60/methodology.htm). In the NCI-60 assay, test compounds undergo preliminary screening at 10 μM concentration. The data is reported as percent growth relative to “no drug” control; therefore values between 0 and 100% denote growth inhibition.

renal cancer cell lines = test: NCI-60 screen, renal cell lines; format: cell-based, human; details: Homo sapiens, NCI-60 preliminary screening, read-out: Percent (%) Inhibition of Cancer Cell Line, Renal Cell
Protocol: as §1

leukemia cell lines = test: NCI-60 screen, leukemia cell lines; format: cell-based; details: Homo sapiens, NCI-60 preliminary screening, read-out: Percent (%) Inhibition of Cancer Cell Line, Leukemia
Protocol: as §1

inhibition at 0.1 µM [1]	SMILES	activity at 100 µM [2]	other results
31.3%	COc1cc2c(c(OC)c1OC)C1(NCC2)C(=O)N(Cc2ccc(C)cc2)c2ccccc21 (stereo not drawn) [Compound 6e, 6′,7′,8′-Trimethoxy-1-(4-methylbenzyl)-3′,4′-dihydro-2′H-spiro[indoline-3,1′-isoquinolin]-2-one]		
≥ 50%	O=C1N(Cc2ccc(Cl)cc2)c2ccc(Cl)cc2C12NCCc1cc(O)ccc12 (stereo not drawn) [Compound 2l, 5-Chloro-1-(4-chlorobenzyl)-6′-hydroxy-3′,4′-dihydro-2′H-spiro[indoline-3,1′-isoquinolin]-2-one]	37.2%	inhibition of EMT6 cell proliferation [2]: as much as fifty percent
	O=C1Nc2c(Br)cc(Br)cc2C12NCCc1cccc(O)c12 (stereo not drawn) [Compound 1c, 5,7-Dibromo-8′-hydroxy-3′,4′-dihydro-2′H-spiro[indoline-3,1′-isoquinolin]-2-one]	87.6%	
36.7%	COc1cc2c(c(OC)c1OC)C1(NCC2)C(=O)Nc2c(Br)cc(Br)cc21 (stereo not drawn) [Compound 6c, 5,7-Dibromo-6′,7′,8′-trimethoxy-3′,4′-dihydro-2′H-spiro[indoline-3,1′-isoquinolin]-2-one]		
≥ 50%	Cc1ccc(CN2C(=O)C3(NCCc4cccc(O)c43)c3ccccc32)cc1 (stereo not drawn) [Compound 1h, 8′-Hydroxy-1-(4-methylbenzyl)-3′,4′-dihydro-2′H-spiro[indoline-3,1′-isoquinolin]-2-one]	127%	
	O=C1Nc2ccc(Cl)cc2C12NCCc1cc(O)c(O)cc12 (stereo not drawn) [Compound 3b, 5-Chloro-6′,7′-dibydroxy-3′,4′-dihydro-2′H-spiro[indoline-3,1′-isoquinolin]-2-one]		% INHIBITION of binding to the SIP1 Receptor [1]: 34.2%
36.3%	COc1ccc2c(c1)CCNC21C(=O)Nc2c(Br)cc(Br)cc21 (stereo not drawn) [Compound 4c, 5,7-Dibromo-6′-methoxy-3′,4′-dihydro-2′H-spiro[indoline-3,1′-isoquinolin]-2-one]		
	O=C1Nc2ccc(Cl)cc2C12NCCc1cc(O)ccc12 (stereo not drawn) [Compound 2b, 5-Chloro-6′-hydroxy-3′,4′-dihydro-2′H-spiro[indoline-3,1′-isoquinolin]-2-one]	109%	inhibition at 10 µM [3]: 17%; inhibition at 10 µM (renal cancer cell lines): 17%
	COc1ccc2c(c1)CCNC21C(=O)Nc2ccc(Cl)cc21 (stereo not drawn) [Compound 4b, 5-Chloro-6′-methoxy-3′,4′-dihydro-2′H-spiro[indoline-3,1′-isoquinolin]-2-one]	142%	inhibition at 10 µM (renal cancer cell lines): 23 to 30%
39.1%	COc1cc2c(cc1OC)C1(NCC2)C(=O)Nc2ccccc21 (stereo not drawn) [Compound 5a, 6′,7′-Dimethoxy-3′,4′-dihydro-2′H-spiro[indoline-3,1′-isoquinolin]-2-one]		inhibition at 10 µM (renal cancer cell lines): 25 to 37%
	O=C1N(Cc2ccc(Cl)cc2)c2ccccc2C12NCCc1cc(O)ccc12 (stereo not drawn) [Compound 2e, 1-(4-Chlorobenzyl)-6′-hydroxy-3′,4′-dihydro-2′H-spiro[indoline-3,1′-isoquinolin]-2-one]	72.2%	
	O=C1N(Cc2ccc(Br)cc2)c2ccccc2C12NCCc1cc(O)ccc12 (stereo not drawn) [Compound 2f, 1-(4-bromobenzyl)-6′-hydroxy-3′,4′-dihydro-2′H-spiro[indoline-3,1′-isoquinolin]-2-one]	41.4%	inhibition of EMT6 cell proliferation [2]: as much as fifty percent
≥ 50%	COc1cc2c(c(OC)c1OC)C1(NCC2)C(=O)N(Cc2ccc(F)cc2)c2ccccc21 (stereo not drawn) [Compound 6d, 1-(4-Fluorobenzyl)-6′,7′,8′-trimethoxy-3′,4′-dihydro-2′H-spiro[indoline-3,1′-isoquinolin]-2-one]		
41.5%	COc1ccc2c(c1)CCNC21C(=O)N(Cc2ccc(F)cc2)c2ccccc21 (stereo not drawn) [Compound 4d, 6′-Methoxy-1-(4-fluorobenzyl)-3′,4′-dihydro-2′H-spiro[indoline-3,1′-isoquinolin]-2-one]		
	O=C1N(Cc2ccc(F)cc2)c2ccc(Cl)cc2C12NCCc1cc(O)ccc12 (stereo not drawn) [Compound 2k, 5-Chloro-1-(4-fluorobenzyl)-6′-hydroxy-3′,4′-dihydro-2′H-spiro[indoline-3,1′-isoquinolin]-2-one]	131%	
	O=C1N(Cc2ccccc2[N+](=O)[O-])c2ccccc2C12NCCc1cccc(O)c12 (stereo not drawn) [Compound 1i, 8-Hydroxy-1-(2-nitrobenzyl)-3′,4′-dihydro-2′H-spiro[indoline-3,1′-isoquinolin]-2-one]		% INHIBITION of binding to the SIP1 Receptor [1]: 35.4%; EMT6 cell proliferation (%) [2]: 108.20%
38.4%	COc1cc2c(c(OC)c1OC)C1(NCC2)C(=O)Nc2ccccc21 (stereo not drawn) [Compound 6a, 6′,7′,8′-Trimethoxy-3′,4′-dihydro-2′H-spiro[indoline-3,1′-isoquinolin]-2-one]		inhibition at 10 µM (leukemia cell lines): 22%; inhibition at 10 µM (renal cancer cell lines): 22%
≥ 50%	O=C1N(Cc2ccc(Cl)cc2)c2ccc(Cl)cc2C12NCCc1cccc(O)c12 (stereo not drawn) [Compound 1l, 5-Chloro-1-(4-chlorobenzyl)-8′-hydroxy-3′,4′-dihydro-2′H-spiro[indoline-3,1′-isoquinolin]-2-one]		
	O=C1N(Cc2ccc(F)cc2)c2ccccc2C12NCCc1cc(O)ccc12 (stereo not drawn) [Compound 2d, 1-(4-Fluorobenzyl)-6′-hydroxy-3′,4′-dihydro-2′H-spiro[indolline-3,1′-isoquinolin]-2-one]		EMT6 cell proliferation (%) [2]: 123.61%
≥ 50%	O=C1N(Cc2ccc(Br)cc2)c2ccccc2C12NCCc1cccc(O)c12 (stereo not drawn) [Compound 1f, 1-(4-bromobenzyl)-8′-hydroxy-3′,4′-dihydro-2′H-spiro[indoline-3,1′-isoquinolin]-2-one]	103%	
	Cc1ccc(CN2C(=O)C3(NCCc4cc(O)ccc43)c3cc(Cl)ccc32)cc1 (stereo not drawn) [Compound 2m, 5-Chloro-6′-hydroxy-1-(4-methylbenzyl)-3′,4′-dihydro-2′ spiro[indoline-3,1′-isoquinolin]-2-one]		% INHIBITION of binding to the SIP1 Receptor [1]: 52.4%; EMT6 cell proliferation (%) [2]: 72.26%
	Cc1ccc(CN2C(=O)C3(NCCc4cc(O)ccc43)c3ccccc32)cc1 (stereo not drawn) [Compound 2h, 6′-Hydroxy-1-(4-methylbenzyl)-3′,4′-dihydro-2′H-spiro[indoline-3,1′-isoquinolin]-2-one]	132%	inhibition at 10 µM [3]: 32%; inhibition at 10 µM (leukemia cell lines): 24%; inhibition at 10 µM (renal cancer cell lines): 25%
	O=C1N(Cc2ccccc2[N+](=O)[O-])c2ccccc2C12NCCc1cc(O)ccc12 (stereo not drawn) [Compound 2i, 6′-Hydroxy-1-(2-nitrobenzyl)-3′,4′-dihydro-2′H-spiro[indoline-3,1′-isoquinolin]-2-one]	98.5%	
≥ 50%	O=C1N(Cc2ccc(F)cc2)c2ccc(Cl)cc2C12NCCc1cccc(O)c12 (stereo not drawn) [Compound 1k, 5-Chloro-1-(4-fluorobenzyl)-8′-hydroxy-3′,4′-dihydro-2′H-spiro[indoline-3,1′-isoquinolin]-2-one]		
40%	COc1cc2c(cc1OC)C1(NCC2)C(=O)N(Cc2ccc(F)cc2)c2ccccc21 (stereo not drawn) [Compound 5d, 1-(4-fluorobenzyl)-6′,7′-dimethoxy-3′,4′-dihydro-2′H-spiro[indoline-3,1′-isoquinolin]-2-one]		
	O=C1Nc2ccccc2C12NCCc1cc(O)c(O)cc12 (stereo not drawn) [Compound 3a, 6′,7′-Dihydroxy-3′,4′-dihydro-2′H-spiro[indoline-3,1′-isoquinolin]-2-one]	91.2%	
